Reference: ChEMBL document CHEMBL2417537, “Synthesis and antifungal activity of terpenyl-1,4-naphthoquinone and 1,4-anthracenedione derivatives” (Eur J Med Chem, 2013)
≈ marks a conversion by molar mass, not a printed value. Calls of active or inactive are those of the source. The rule behind the calls is not given here.

Assays:
[1] = system: Candida parapsilosis; assay: Antifungal activity against Candida parapsilosis ATCC 22019 after 24 hrs; assay type: functional; conditions: ATCC 22019, 24 h
[2] = system: Pichia kudriavzevii; assay: Antifungal activity against Candida krusei ATCC 6258 after 24 hrs; assay type: functional; conditions: ATCC 6258, 24 h
[3] = Selectivity index, ratio of IC50 for african green monkey Vero cells to IC50 for Aspergillus flavus ATCC 204304; assay type: toxicity, cell-based; conditions: read-out: Ratio IC50
[4] = system: Aspergillus flavus; assay: Antifungal activity against Aspergillus flavus ATCC 204304 after 48 hrs; assay type: functional; conditions: ATCC 204304, 48 h
[5] = system: Aspergillus fumigatus; assay: Antifungal activity against Aspergillus fumigatus ATCC 204305 after 48 hrs; assay type: functional; conditions: ATCC 204305, 48 h
[6] = system: Trichophyton rubrum; assay: Antifungal activity against Trichophyton rubrum ATCC 28188 after 6 days; assay type: functional; conditions: ATCC 28188, 144 h
[7] = system: Candida parapsilosis; assay: Antifungal activity against Candida parapsilosis ATCC 22019 at > MIC up to 24 hrs by time kill study; assay type: functional, organism-based
[8] = system: Trichophyton mentagrophytes; assay: Antifungal activity against Trichophyton mentagrophytes ATCC 24198 after 6 days; assay type: functional; conditions: ATCC 24198, 144 h
[9] = system: Vero; assay: Cytotoxicity against african green monkey Vero cells after 48 hrs by MTT assay; assay type: cell-based; conditions: Chlorocebus sabaeus
[10] = system: Aspergillus terreus; assay: Antifungal activity against Aspergillus terreus CDC 317 after 48 hrs; assay type: functional; conditions: CDC 317, 48 h
[11] = system: Clavispora lusitaniae; assay: Antifungal activity against Candida lusitaniae ATCC 200951 after 24 hrs; assay type: functional; conditions: ATCC 200951, 24 h
[12] = Selectivity index, ratio of IC50 for african green monkey Vero cells to IC50 for Candida parapsilosis ATCC 22019; assay type: toxicity, cell-based
[13] = system: Candida parapsilosis; assay: Antifungal activity against Candida parapsilosis ATCC 22019 at 0.5 MIC up to 24 hrs by time kill study; assay type: functional, organism-based
[14] = system: Fusarium oxysporum; assay: Antifungal activity against Fusarium oxysporum ATCC 48112 after 48 hrs; assay type: functional; conditions: ATCC 48112, 48 h
[15] = Selectivity index, ratio of IC50 for african green monkey Vero cells to IC50 for Candida krusei ATCC 6258; assay type: toxicity, cell-based; conditions: read-out: Ratio IC50
[16] = system: Candida tropicalis; assay: Antifungal activity against Candida tropicalis CECT 11901 after 24 hrs; conditions: CECT 11901, 24 h
[17] = system: Aspergillus niger; assay: Antifungal activity against Aspergillus niger ATCC 16404 after 48 hrs; assay type: functional; conditions: ATCC 16404, 48 h
[18] = system: Candida tropicalis; assay: Antifungal activity against Candida tropicalis ATCC 200956 after 24 hrs; assay type: functional; conditions: ATCC 200956, 24 h
[19] = system: Candida albicans; assay: Antifungal activity against Candida albicans ATCC 90028 after 24 hrs; assay type: functional; conditions: ATCC 90028, 24 h
[20] = Selectivity index, ratio of IC50 for african green monkey Vero cells to IC50 for Candida lusitaniae ATCC 200951; assay type: toxicity, cell-based; conditions: read-out: Ratio IC50
[21] = system: Candida albicans; assay: Antifungal activity against Candida albicans ATCC 10231 after 24 hrs; assay type: functional; conditions: ATCC 10231, 24 h

| Structure (SMILES) | MIC90 [1] [µg/mL] | MIC90 [2] [µg/mL] | selectivity ratio [3] | MIC90 [4] [µg/mL] | MIC90 [5] [µg/mL] | MIC90 [6] [µg/mL] | Activity [7] | MIC90 [8] [µg/mL] | IC50 [9] [µg/mL] | other results |
| --- | --- | --- | --- | --- | --- | --- | --- | --- | --- | --- |
| C[C@@H]1[C@H](O)[C@@H](C)/C=C/C=C/C=C/C=C/C=C/C=C/C=C/[C@H](O[C@@H]2O[C@H](C)[C@@H](O)[C@H](N)[C@@H]2O)C[C@@H]2O[C@](O)(C[C@@H](O)C[C@@H](O)[C@H](O)CC[C@@H](O)C[C@@H](O)CC(=O)O[C@H]1C)C[C@H](O)[C@H]2C(=O)O [AMPHOTERICIN B] | 2 (≈ 2.16 µM) | 2 (≈ 2.16 µM) | 7.1 | 4 (≈ 4.33 µM) | 2 (≈ 2.16 µM) | < 0.004 | Active | < 0.004 | 28.6 (≈ 30.9 µM) | – |
| CC1(C)CCCc2cc3c(cc21)C(=O)C(Cl)=C(Cl)C3=O | 2 (≈ 6.47 µM) | 1 (≈ 3.23 µM) | > 5.2 | 4.8 (≈ 15.5 µM) | 8 (≈ 25.9 µM) | 8 (≈ 25.9 µM) | Active | 6.1 (≈ 19.7 µM) | ≤ 25 | MIC90 [10]: > 32 µg/mL; MIC90 [11]: 2 µg/mL (≈ 6.47 µM); selectivity ratio [12]: > 12.5; Activity [13]: inactive; MIC90 [14]: > 32 µg/mL; selectivity ratio [15]: > 25; MIC90 [16]: > 32 µg/mL; MIC90 [17]: > 32 µg/mL; MIC90 [18]: 5 µg/mL (≈ 16.2 µM); MIC90 [19]: 8 µg/mL (≈ 25.9 µM); selectivity ratio [20]: > 12.5; MIC90 [21]: > 32 µg/mL |
